These compounds were tested on C. albicans ATCC 38247 (assay: NCCLS broth microdilution MIC (antifungal)). Conditions: E = C. albicans ATCC 38247.
Type: cell-based
Experimental: (§1) Compounds according to this invention were screened for their in vitro activities against selected species of bacteria and fungi. The minimal inhibition concentration (MIC) of these compounds was determined using the National Committee for Clinical Laboratory Standards (NCCLS) broth microdilution assay in microtiter plates, as set forth in: (1) the guidelines of the National Committee for Clinical Laboratory Standards (NCCLS) Document M7-A4 (NCCLS, 1997); (2) the guidelines of the National Committee for Clinical Laboratory Standards (NCCLS) Document M11-A4 (NCCLS, 1997); and (3) the guidelines and reference method of the National Committee for Clinical Laboratory Standards (NCCLS) Document M27-T (NCCLS, 1995). For antifungal essays, the method recommended in Murray, P R., 1995 Manual of Clinical Microbiology (ASM Press, Washington, D.C.), was employed. […]
For CN(C)CC(C)(C)CNC(=O)CCNC(=O)c1cc(NC(=O)c2cc(NC(=O)CCNC(=O)c3cc(NC(=O)c4cc(NC(=O)c5cc(Br)c(Br)s5)cn4C)cn3C)cn2C)cn1C [Id-7], the “Minimum Inhibitory Concentration (MIC)” value was >32 µg/mL. In the case of CN1CCCN(C(=O)CCNC(=O)c2cc(NC(=O)c3cc(NC(=O)CCNC(=O)c4cc(NC(=O)c5cc(NC(=O)c6ccc(Br)s6)cn5C)cn4C)cn3C)cn2C)CC1 [Id-16], the “Minimum Inhibitory Concentration (MIC)” value is reported as >32 µg/mL. In the case of Cn1cc(NC(=O)c2cc(NC(=O)CCNC(=O)c3cc(NC(=O)c4cc(NC(=O)c5ccc(Br)s5)cn4C)cn3C)cn2C)cc1C(=O)NCCC(=O)NCCCCN [Id-17], the “Minimum Inhibitory Concentration (MIC)” value is reported as >32 µg/mL.

The compounds below were run on S. pneumoniae ATCC 49619 (assay: NCCLS broth microdilution MIC). Conditions: F = S. pneumoniae ATCC 49619.
Type: cell-based, Streptococcus pneumoniae
Experimental: as §1
With CN(C)CC(C)(C)CNC(=O)CCNC(=O)c1cc(NC(=O)c2cc(NC(=O)CCNC(=O)c3cc(NC(=O)c4cc(NC(=O)c5cc(Br)c(Br)s5)cn4C)cn3C)cn2C)cn1C [Id-7] the “Minimum Inhibitory Concentration (MIC)” value was “+++ (+++ = MIC ≦4)”. With CN1CCCN(C(=O)CCNC(=O)c2cc(NC(=O)c3cc(NC(=O)CCNC(=O)c4cc(NC(=O)c5cc(NC(=O)c6ccc(Br)s6)cn5C)cn4C)cn3C)cn2C)CC1 [Id-16] the “Minimum Inhibitory Concentration (MIC)” value was “+++ (+++ = MIC ≦4)”. For Cn1cc(NC(=O)c2cc(NC(=O)CCNC(=O)c3cc(NC(=O)c4cc(NC(=O)c5ccc(Br)s5)cn4C)cn3C)cn2C)cc1C(=O)NCCC(=O)NCCCCN [Id-17], the “Minimum Inhibitory Concentration (MIC)” value was “+++ (+++ = MIC ≦4)”.

What follows are compounds tested on B. cereus ATCC 11778 (assay: NCCLS broth microdilution MIC). Conditions: C = B. cereus ATCC 11778.
Type: cell-based, Bacillus cereus
Experimental: as §1
With CN(C)CC(C)(C)CNC(=O)CCNC(=O)c1cc(NC(=O)c2cc(NC(=O)CCNC(=O)c3cc(NC(=O)c4cc(NC(=O)c5cc(Br)c(Br)s5)cn4C)cn3C)cn2C)cn1C [Id-7] the “Minimum Inhibitory Concentration (MIC)” value was “+++ (+++ = MIC ≦4)”. For CN1CCCN(C(=O)CCNC(=O)c2cc(NC(=O)c3cc(NC(=O)CCNC(=O)c4cc(NC(=O)c5cc(NC(=O)c6ccc(Br)s6)cn5C)cn4C)cn3C)cn2C)CC1 [Id-16], the “Minimum Inhibitory Concentration (MIC)” value was >32 µg/mL. In the case of Cn1cc(NC(=O)c2cc(NC(=O)CCNC(=O)c3cc(NC(=O)c4cc(NC(=O)c5ccc(Br)s5)cn4C)cn3C)cn2C)cc1C(=O)NCCC(=O)NCCCCN [Id-17], the “Minimum Inhibitory Concentration (MIC)” value is reported as “+++ (+++ = MIC ≦4)”.

The compounds below were run on 5′-AAAAAGCAAAAA-3′ (assay: not given). Conditions: DNA sequence 5′-AAAAAGCAAAAA-3′; pH 7.0, 22° C.
Type: binding
Experimental: (§2) A number of compounds according to this invention were screened for their ability to bind to three DNA sites, using DNase I footprinting. Generally, the procedure described in Dervan, WO 98/50582 (1998), was followed.
(§3) A plasmid was prepared by hybridizing two sets of 5′-phosphorylated complementary oligonucleotides, one set being
(§4) The target sites and their complements are identified in bold underline.
(§5) The resulting duplexes were ligated to the large pUC19 AvaI/SalI restriction fragment. The 3′-P32 end-labeled EcoRI/PvuII fragment was prepared by digesting the plasmid with EcoRI and PvuII with simultaneous fill-in using Sequenase v. 2.0, [alpha-P32]-deoxyadenosine-5′-triphosphate, and [alpha-P32]-thymidine-5′-triphosphate, and isolating the cloned fragment by nondenaturing gel electrophoresis. Standard methods were used for all DNA manipulations, including A and G sequencing. See, e.g., Maxam et al., Methods Enzymol., 1980, 65, 499-560; Iverson et al., Methods Enzymol., 1987, 15, 7823-7830; and Sambrook et al., 1989, Molecular Cloning, 2nd ed., Cold Spring Harbor Laboratory Press: Cold Spring Harbor, N.Y.
(§6) Quantitative DNase I footprint titration experiments were carried out as described previously (Dervan, WO 98/50582, 1998, “Dervan '582”) with the following changes. All reactions were carried out in a total volume of 400 μL, with polyamide stock solution or water added to 15,000 cpm radiolabeled restriction fragment affording final solution conditions of 10 mM Tris.HCl, 10 mM KCl, 10 mM MgCl2, 5 mM CaCl2, pH 7.0 and 0.01 nM, 0.1 nM, 1.0 nM, 10.0 nM polyamide or no polyamide for reference lanes. The polyamides were allowed to equilibrate at 22° C. for 16 hr. Footprinting reactions were initiated with addition of 10 μL of a DNase I stock solution (at the appropriate concentration to give ˜50% intact DNA) containing 1 mM DTT and allowed to proceed for 7 min at 22° C. The reactions were stopped, ethanol precipitated, resuspended in loading buffer, heat denatured, and placed on ice as described in Dervan '582. The reaction products were separated on a precast 8% polyacrylamide denaturing sequencing Castaway gel with 32 preformed wells from Stratagene in 1× TBE at 2000 V. Gels were dried according to the manufacturer's instructions and exposed to a storage phosphor screen (Molecular Dynamics). Quantitation and data analysis were carried out as described in Dervan '582.
With CN(C)CC(C)(C)CNC(=O)CCNC(=O)c1cc(NC(=O)c2cc(NC(=O)CCNC(=O)c3cc(NC(=O)c4cc(NC(=O)c5cc(Br)c(Br)s5)cn4C)cn3C)cn2C)cn1C [Id-7] the “Equilibrium Association Constant (Ka)” value was 5e+08 M⁻¹. With CN1CCCN(C(=O)CCNC(=O)c2cc(NC(=O)c3cc(NC(=O)CCNC(=O)c4cc(NC(=O)c5cc(NC(=O)c6ccc(Br)s6)cn5C)cn4C)cn3C)cn2C)CC1 [Id-16] the “Equilibrium Association Constant (Ka)” value was 5e+10 M⁻¹. In the case of Cn1cc(NC(=O)c2cc(NC(=O)CCNC(=O)c3cc(NC(=O)c4cc(NC(=O)c5ccc(Br)s5)cn4C)cn3C)cn2C)cc1C(=O)NCCC(=O)NCCCCN [Id-17], the “Equilibrium Association Constant (Ka)” value is reported as “≧1 × 10^11 M^−1”.

What follows are compounds tested on 5′-AAAAAGACAAAAA-3′ (assay: not given). Conditions: DNA sequence 5′-AAAAAGACAAAAA-3′; pH 7.0, 22° C.
Type: binding
Experimental: as §2, §3, §4, §5, §6
CN(C)CC(C)(C)CNC(=O)CCNC(=O)c1cc(NC(=O)c2cc(NC(=O)CCNC(=O)c3cc(NC(=O)c4cc(NC(=O)c5cc(Br)c(Br)s5)cn4C)cn3C)cn2C)cn1C [Id-7] was tested, and the “Equilibrium Association Constant (Ka)” value was 5e+08 M⁻¹. CN1CCCN(C(=O)CCNC(=O)c2cc(NC(=O)c3cc(NC(=O)CCNC(=O)c4cc(NC(=O)c5cc(NC(=O)c6ccc(Br)s6)cn5C)cn4C)cn3C)cn2C)CC1 [Id-16] was tested, and the “Equilibrium Association Constant (Ka)” value was 5e+10 M⁻¹. With Cn1cc(NC(=O)c2cc(NC(=O)CCNC(=O)c3cc(NC(=O)c4cc(NC(=O)c5ccc(Br)s5)cn4C)cn3C)cn2C)cc1C(=O)NCCC(=O)NCCCCN [Id-17] the “Equilibrium Association Constant (Ka)” value was “≧1 × 10^11 M^−1”.

These compounds were tested on 5′-AAAAAGTACAAAAA-3′ (assay: not given). Conditions: DNA sequence 5′-AAAAAGTACAAAAA-3′; pH 7.0, 22° C.
Type: binding
Experimental: as §2, §3, §4, §5, §6
With CN(C)CC(C)(C)CNC(=O)CCNC(=O)c1cc(NC(=O)c2cc(NC(=O)CCNC(=O)c3cc(NC(=O)c4cc(NC(=O)c5cc(Br)c(Br)s5)cn4C)cn3C)cn2C)cn1C [Id-7] the “Equilibrium Association Constant (Ka)” value was “≧1 × 10^11 M^−1”. In the case of CN1CCCN(C(=O)CCNC(=O)c2cc(NC(=O)c3cc(NC(=O)CCNC(=O)c4cc(NC(=O)c5cc(NC(=O)c6ccc(Br)s6)cn5C)cn4C)cn3C)cn2C)CC1 [Id-16], the “Equilibrium Association Constant (Ka)” value is reported as “≧1 × 10^11 M^−1”. For Cn1cc(NC(=O)c2cc(NC(=O)CCNC(=O)c3cc(NC(=O)c4cc(NC(=O)c5ccc(Br)s5)cn4C)cn3C)cn2C)cc1C(=O)NCCC(=O)NCCCCN [Id-17], the “Equilibrium Association Constant (Ka)” value was “≧1 × 10^11 M^−1”.

Each compound was assayed on S. aureus ATCC 29213 (assay: NCCLS broth microdilution MIC). Conditions: A = S. aureus ATCC 29213.
Type: cell-based, Staphylococcus aureus
Experimental: as §1
CN(C)CC(C)(C)CNC(=O)CCNC(=O)c1cc(NC(=O)c2cc(NC(=O)CCNC(=O)c3cc(NC(=O)c4cc(NC(=O)c5cc(Br)c(Br)s5)cn4C)cn3C)cn2C)cn1C [Id-7] was tested, and the “Minimum Inhibitory Concentration (MIC)” value was “+++ (+++ = MIC ≦4)”. In the case of CN1CCCN(C(=O)CCNC(=O)c2cc(NC(=O)c3cc(NC(=O)CCNC(=O)c4cc(NC(=O)c5cc(NC(=O)c6ccc(Br)s6)cn5C)cn4C)cn3C)cn2C)CC1 [Id-16], the “Minimum Inhibitory Concentration (MIC)” value is reported as >32 µg/mL. With Cn1cc(NC(=O)c2cc(NC(=O)CCNC(=O)c3cc(NC(=O)c4cc(NC(=O)c5ccc(Br)s5)cn4C)cn3C)cn2C)cc1C(=O)NCCC(=O)NCCCCN [Id-17] the “Minimum Inhibitory Concentration (MIC)” value was “+ (+ = MIC from 12 to 32, inclusive)”.

Each compound was assayed on E. coli ATCC 25922 (assay: NCCLS broth microdilution MIC). Conditions: D = E. coli ATCC 25922.
Type: cell-based
Experimental: as §1
CN(C)CC(C)(C)CNC(=O)CCNC(=O)c1cc(NC(=O)c2cc(NC(=O)CCNC(=O)c3cc(NC(=O)c4cc(NC(=O)c5cc(Br)c(Br)s5)cn4C)cn3C)cn2C)cn1C [Id-7] was tested, and the “Minimum Inhibitory Concentration (MIC)” value was >32 µg/mL. CN1CCCN(C(=O)CCNC(=O)c2cc(NC(=O)c3cc(NC(=O)CCNC(=O)c4cc(NC(=O)c5cc(NC(=O)c6ccc(Br)s6)cn5C)cn4C)cn3C)cn2C)CC1 [Id-16] was tested, and the “Minimum Inhibitory Concentration (MIC)” value was >32 µg/mL. Cn1cc(NC(=O)c2cc(NC(=O)CCNC(=O)c3cc(NC(=O)c4cc(NC(=O)c5ccc(Br)s5)cn4C)cn3C)cn2C)cc1C(=O)NCCC(=O)NCCCCN [Id-17] was tested, and the “Minimum Inhibitory Concentration (MIC)” value was >32 µg/mL.

These compounds were tested on E. faecalis ATCC 29212 (assay: NCCLS broth microdilution MIC). Conditions: B = E. faecalis ATCC 29212.
Type: cell-based, Enterococcus faecalis
Experimental: as §1
CN(C)CC(C)(C)CNC(=O)CCNC(=O)c1cc(NC(=O)c2cc(NC(=O)CCNC(=O)c3cc(NC(=O)c4cc(NC(=O)c5cc(Br)c(Br)s5)cn4C)cn3C)cn2C)cn1C [Id-7] was tested, and the “Minimum Inhibitory Concentration (MIC)” value was “+++ (+++ = MIC ≦4)”. In the case of CN1CCCN(C(=O)CCNC(=O)c2cc(NC(=O)c3cc(NC(=O)CCNC(=O)c4cc(NC(=O)c5cc(NC(=O)c6ccc(Br)s6)cn5C)cn4C)cn3C)cn2C)CC1 [Id-16], the “Minimum Inhibitory Concentration (MIC)” value is reported as >32 µg/mL. With Cn1cc(NC(=O)c2cc(NC(=O)CCNC(=O)c3cc(NC(=O)c4cc(NC(=O)c5ccc(Br)s5)cn4C)cn3C)cn2C)cc1C(=O)NCCC(=O)NCCCCN [Id-17] the “Minimum Inhibitory Concentration (MIC)” value was “++ (++ = MIC between 4 and 12)”.

— US20060287247A1, “Halogen-substituted thienyl compounds” (priority 2001, published 2006)
